For one experiment, the system named is Pin1 acetylation. Description: Pin1 acetylation in cells (Co-IP with anti-Flag antibody, immunoblotting with anti-acetyl lysine antibody). Format: cell-based. The text has this: FIG. 1 depicts HTS results for glucose starvation induced Pin1 deacetylation in cells 100. Different stress tests, such as heat shock, ultraviolet radiation, and glucose starvation (Glu^−), may produce an extracellular stimulus that could transform one or more cellular responses related to cell growth, differentiation, activation of transcript factors, glucose metabolism, control of proteins synthesis, and regulation of cell cycle. Among these stresses testes, glucose starvation (Glu^−), may reduce Pin1 acetylation without affecting its protein expression (FIG. 1 A). […] Protein acetylation may be catalytically modulated by a particular pair of histone acetyl transferase (HAT) and histone deacetylase (HDAC) (Yang and Seto, 2007). To identify the HAT and HDAC that modulates Pin1 acetylation, Flag-tagged Pin1 was expressed with several HATs including p300, CBP or GCN5 in cells, followed by co-immunoprecipitation (Co-IP) with anti-Flag antibody and immunoblotting with anti-acetyl lysine antibody. […] Moreover, Pin1 Co-IPed with p300, supporting that p300 is a HAT for Pin1. For the corresponding HDAC, various HDAC inhibitors targeting different HDAC categories were used, including Trichostatin A (TSA) and MS-275 for class I and II HDACs as well as Nicotinamide (NAM) and Splitomicin (Splito) for class III HDACs.
(In general: A western blot detects proteins with antibodies after separation by electrophoresis.)

Experiment [1] deals with Pin1 and SIRT1 interaction. Description: Pin1 and SIRT1 interaction by Co-IP and co-immunostaining. Format: cell-based. Particulars: Co-IP (FIG. 1 K) and co-immunostaining (FIG. 1 L). From the text:
Out of the seven Sirtuin family members, SIRT1, 2, 6, and 7 associated with Pin1 as shown by Co-IP and GST pull-down (FIG. 1 F). However, only SIRT1 reduced Pin1 acetylation (FIG. 1 G). Furthermore, overexpression of wild-type (WT), but not its catalytic dead (H363Y) mutant, induced Pin1 deacetylation in cells (FIG. 1 H). […] In addition, since other studies have shown that glucose starvation activates SIRT1 activity, an investigation was made to know whether glucose starvation-induced Pin1 deacetylation is mediated by SIRT1.

Where [2] appears, read: HDAC inhibitors in cells, FIG. 1 E.

`CCCCCCCCCCCCCCCc1cccc(O)c1C(=O)O` [Anacardic acid]: the “effect on p300-increased Pin1 acetylation (Acetyl-Pin1)” value in the experiment with Pin1 acetylation (cells overexpressing p300 with Flag-Pin1, FIG. 1 D) is “reversed”.

As for `NC(=O)c1cccnc1` [NAM, Nicotinamide], the “effect on Pin1 acetylation” value in the experiment with Pin1 acetylation (setting [2]) is “increased Pin1 acetylation”.

For `O=CC[C@@H](O)[C@H](O)[C@H](O)CO` [2-DG, 2-deoxyglucose], the “effect on Pin1 acetylation” value in the experiment with Pin1 acetylation (mimicking glucose starvation, FIG. 1 B) is given as “reduction in Pin1 acetylation in a time- or dose-dependent manner”. In experiment [1], the “Pin1 binding with SIRT1” value is reported as “increased binding with SIRT1”.

Take `O=C1CCc2c(ccc3ccccc23)O1` [Splito, Splitomicin]: the “effect on Pin1 acetylation” value in the experiment on Pin1 acetylation (setting [2]) is reported as “increased Pin1 acetylation”.

These data come from patent US10351914B2, “Biomarkers for Pin1-associated disorders” (Beth Israel Deaconess Medical Center, Inc., priority 2014, dated 2019).
